# In patent publication US9555022B2, “Substituted triazolopyridines” (Bayer Intellectual Property GmbH, priority 2010, dated 2017):
# Counter-ions that a name gives are not always drawn.
# Target: human full length recombinant Mps-1 kinase (Homo sapiens (Human), UniProt P33981)
# Assay: Mps-1 Kinase Assay (TR-FRET)
# Format: biochemical
# Details: 10 μM ATP, 1 μM biotinylated peptide substrate, 60 min at 22° C., read-out: Mps-1 Inhibition, IC50 in M
# Procedure: The human kinase Mps-1 phosphorylates a biotinylated substrate peptide. Detection of the phosphorylated product is achieved by time-resolved fluorescence resonance energy transfer (TR-FRET) from Europium-labelled anti-phospho-Serine/Threonine antibody as donor to streptavidin labelled with cross-linked allophycocyanin (SA-XLent) as acceptor. Compounds are tested for their inhibition of the kinase activity.
# N-terminally GST-tagged human full length recombinant Mps-1 kinase (purchased from Invitrogen, Karslruhe, Germany, cat. no PV4071) was used. As substrate for the kinase reaction a biotinylated peptide of the amino-acid sequence […] (C-terminus in amide form, purchased from Biosynthan GmbH, Berlin) was used.
# The concentration of Mps-1 in the assay was adjusted to the activity of the enzyme lot and was chosen appropriate to have the assay in the linear range, typical enzyme concentrations were in the range of about 1 nM (final conc. in the 5 μl assay volume).
# The resulting mixture was incubated 1 h at 22° C. to allow the binding of the phosphorylated peptide to the anti-phospho(Ser/Thr)-Europium-antibody. Subsequently the amount of phosphorylated substrate was evaluated by measurement of the resonance energy transfer from the Europium-labelled anti-phospho(Ser/Thr) antibody to the Streptavidin-XLent.
# Chain of human full length recombinant Mps-1 kinase (P33981 whole entry): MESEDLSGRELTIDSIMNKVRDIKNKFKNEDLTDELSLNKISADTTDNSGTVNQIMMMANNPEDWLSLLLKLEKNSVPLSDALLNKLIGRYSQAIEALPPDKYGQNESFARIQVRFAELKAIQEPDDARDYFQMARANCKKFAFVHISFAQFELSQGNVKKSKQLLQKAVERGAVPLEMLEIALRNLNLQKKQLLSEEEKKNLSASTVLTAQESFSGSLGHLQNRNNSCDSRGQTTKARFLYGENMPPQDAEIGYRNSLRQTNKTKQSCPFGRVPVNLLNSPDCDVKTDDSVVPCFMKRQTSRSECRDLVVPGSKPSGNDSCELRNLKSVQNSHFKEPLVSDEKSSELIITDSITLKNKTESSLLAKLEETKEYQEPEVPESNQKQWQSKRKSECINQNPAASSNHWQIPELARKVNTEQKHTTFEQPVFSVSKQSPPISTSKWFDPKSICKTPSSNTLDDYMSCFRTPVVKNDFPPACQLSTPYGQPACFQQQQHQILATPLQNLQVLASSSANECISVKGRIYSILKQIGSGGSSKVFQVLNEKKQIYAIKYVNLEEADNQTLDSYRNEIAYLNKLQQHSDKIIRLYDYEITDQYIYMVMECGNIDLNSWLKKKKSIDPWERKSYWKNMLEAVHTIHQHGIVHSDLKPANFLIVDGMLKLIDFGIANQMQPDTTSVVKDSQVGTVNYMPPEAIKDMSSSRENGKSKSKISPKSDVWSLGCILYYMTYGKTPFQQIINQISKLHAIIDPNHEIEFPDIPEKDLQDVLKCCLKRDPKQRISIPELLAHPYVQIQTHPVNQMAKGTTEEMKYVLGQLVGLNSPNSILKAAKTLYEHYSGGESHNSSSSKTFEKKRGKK
row,IC50 [nM],Compound
1,1.05,"COc1cc(N2CCN(C)CC2)ccc1Nc1nc2ccc(-c3ccc(NC(=O)Cc4ccc(F)cc4)cc3)cn2n1 [Example 02.08, 2-(4-fluorophenyl)-N-[4-(2-{[2-methoxy-4-(4-methylpiperazin-1-yl)phenyl]amino}[,2]-triazolo[1,5-a]pyridin-6-yl)phenyl]acetamide trifluoroacetate]"
2,≤ 1,"CCOc1cc(C(=O)N2CCOCC2)ccc1Nc1nc2ccc(-c3ccc(NC(=O)CC4CC4)cc3)cn2n1 [Example 01.02, 2-cyclopropyl-N-[4-(2-{[2-ethoxy-4-(morpholin-4-ylcarbonyl)phenyl]amino}[,2]-triazolo[1,5-a]pyridin-6-yl)phenyl]acetamide]"
3,≤ 1,"COc1cc(N2CCN(C(C)(C)C)CC2)ccc1Nc1nc2ccc(-c3ccc(C(=O)NCc4ccc(F)cc4)cc3)cn2n1 [Example 04.19, 4-(2-{[4-(4-tert-butylpiperazin-1-yl)-2-methoxyphenyl]amino}[,2]triazolo[1,5-a]pyridin-6-yl)-N-(4-fluorobenzyl)benzamide]"
4,≤ 1,"COc1cc(C(=O)N2CCS(=O)(=O)CC2)ccc1Nc1nc2ccc(-c3ccc(C(=O)NCc4ccc(F)cc4)cc3)cn2n1 [Example 04.09, 4-[2-({4-[(1,1-dioxidothiomorpholin-4-yl)carbonyl]-2-methoxyphenyl}amino)[,2]triazolo[1,5-a]pyridin-6-yl]-N-(4-fluorobenzyl)benzamide]"
5,≤ 1,"O=C(Cc1ccc(F)cc1)Nc1ccc(-c2ccc3nc(Nc4ccc(C(=O)N5CCOCC5)cc4OCC(F)F)nn3c2)cc1 [Example 02.31, N-[4-(2-{[2-(2,2-difluoroethoxy)-4-(morpholin-4-ylcarbonyl)phenyl]amino}[,2]-triazolo[1,5-a]pyridin-6-yl)phenyl]-2-(4-fluorophenyl)acetamide]"
6,≤ 1,"O=C(Cc1ccc(F)cc1)Nc1ccc(-c2ccc3nc(Nc4ccc(C(=O)N5CC6(COC6)C5)cc4OCCF)nn3c2)cc1 [Example 02.30, N-[4-(2-{[2-(2-fluoroethoxy)-4-(2-oxa-6-azaspiro[3.3]hept-6-ylcarbonyl)phenyl]amino}[,2]triazolo[1,5-a]pyridin-6-yl)phenyl]-2-(4-fluorophenyl)acetamide]"
7,≤ 1,"O=C(NCc1ccc(F)cc1)c1ccc(-c2ccc3nc(Nc4ccc(C(=O)N5CCOCC5)cc4F)nn3c2)cc1 [Example 04.21, N-(4-fluorobenzyl)-4-(2-{[2-fluoro-4-(morpholin-4-ylcarbonyl)phenyl]amino}[,2]-triazolo[1,5-a]pyridin-6-yl)benzamide]"
8,≤ 1,"COc1cc(C(=O)NC2COC2)ccc1Nc1nc2ccc(-c3ccc(C(=O)NCc4ccc(F)cc4)cc3)cn2n1 [Example 04.11, 4-[(6-{4-[(4-fluorobenzyl)carbamoyl]phenyl}[,2]triazolo[1,5-a]pyridin-2-yl)amino]-3-methoxy-N-(oxetan-3-yl)benzamide]"
9,≤ 1,"CSc1cc(OC2CCN(C)CC2)ccc1Nc1nc2ccc(-c3ccc(NC(=O)Cc4ccc(F)cc4)cc3)cn2n1 [Example 02.36, 2-(4-fluorophenyl)-N-{4-[2-({4-[(1-methylpiperidin-4-yl)oxy]-2-(methylsulfanyl)phenyl}amino)[,2]triazolo[1,5-a]pyridin-6-yl]phenyl}acetamide]"
10,≤ 1,"COc1cc(C(=O)N2CCOCC2)ccc1Nc1nc2ccc(-c3ccc(C(=O)NCc4ccc(F)cc4)c(Cl)c3)cn2n1 [Example 08.01, 2-chloro-N-(4-fluorobenzyl)-4-(2-{[2-methoxy-4-(morpholin-4-ylcarbonyl)phenyl]amino}[,2]-triazolo[1,5-a]pyridin-6-yl)benzamide]"
11,≤ 1,"CCOc1cc(C(=O)N2CC(O)C2)ccc1Nc1nc2ccc(-c3ccc(NC(=O)Cc4ccc(F)cc4)cc3)cn2n1 [Example 02.24, N-{4-[2-({2-ethoxy-4-[(3-hydroxyazetidin-1-yl)carbonyl]phenyl}amino)[,2]triazolo[1,5-a]pyridin-6-yl]phenyl}-2-(4-fluorophenyl)acetamide]"
12,1.04,"COc1cc(C2=NC(C)(C)CO2)ccc1Nc1nc2ccc(-c3ccc(NC(=O)Cc4ccc(F)cc4)cc3)cn2n1 [Example 02.03, N-[4-(2-{[4-(4,4-dimethyl-4,5-dihydro-1,3-oxazol-2-yl)-2-methoxyphenyl]amino}[,2]-triazolo[1,5-a]pyridin-6-yl)phenyl]-2-(4-fluorophenyl)acetamide]"
13,≤ 1,"COc1cc(C(=O)N2CC(O)C2)ccc1Nc1nc2ccc(-c3ccc(NC(=O)Cc4ccc(F)cc4)cc3)cn2n1 [Example 02.19, 2-(4-fluorophenyl)-N-{4-[2-({4-[(3-hydroxyazetidin-1-yl)carbonyl]-2-methoxyphenyl}amino)[,2]triazolo[1,5-a]pyridin-6-yl]phenyl}acetamide]"
14,6.02,"COc1cc(N2CCN(C)CC2)ccc1Nc1nc2ccc(-c3ccc(NC(=O)CC4CC4)cc3)cn2n1 [Example 01.03, 2-cyclopropyl-N-[4-(2-{[2-methoxy-4-(4-methylpiperazin-1-yl)phenyl]amino}[,2]-triazolo[1,5-a]pyridin-6-yl)phenyl]acetamide trifluoroacetate]"
15,≤ 1,"COc1cc(C(=O)N2CCOCC2)ccc1Nc1nc2ccc(-c3ccc(C(=O)NCc4ccc(F)cc4)c(F)c3)cn2n1 [Example 06.01, 2-fluoro-N-(4-fluorobenzyl)-4-(2-{[2-methoxy-4-(morpholin-4-ylcarbonyl)phenyl]amino}[,2]-triazolo[1,5-a]pyridin-6-yl)benzamide]"
16,≤ 1,"CCOc1cc(C(=O)N2CCN(C(C)=O)CC2)ccc1Nc1nc2ccc(-c3ccc(C(=O)NCc4ccc(F)cc4)cc3)cn2n1 [Example 04.13, 4-[2-({4-[(4-acetylpiperazin-1-yl)carbonyl]-2-ethoxyphenyl}amino)[,2]triazolo[1,5-a]pyridin-6-yl]-N-(4-fluorobenzyl)benzamide]"
17,≤ 1,"COc1cc(C(=O)NC2COC2)ccc1Nc1nc2ccc(-c3ccc(NC(=O)Cc4ccc(F)cc4)cc3)cn2n1 [Example 02.21, 4-{[6-(4-{[(4-fluorophenyl)acetyl]amino}phenyl)[,2]triazolo[1,5-a]pyridin-2-yl]amino}-3-methoxy-N-(oxetan-3-yl)benzamide]"
18,≤ 1,"CCOc1cc(C(=O)N2CCOCC2)ccc1Nc1nc2ccc(-c3ccc(C(=O)NCc4ccc(F)cc4)cc3)cn2n1 [Example 04.02, 4-(2-{[2-Ethoxy-4-(morpholin-4-ylcarbonyl)phenyl]amino}[,2]-triazolo[1,5-a]pyridin-6-yl)-N-(4-fluorbenzyl)benzamid]"
19,≤ 1,"COc1cc(N2CCN(C)CC2)ccc1Nc1nc2ccc(-c3ccc(C(=O)NCc4ccc(F)cc4)cc3)cn2n1 [Example 04.18, N-(4-fluorobenzyl)-4-(2-{[2-methoxy-4-(4-methylpiperazin-1-yl)phenyl]amino}[,2]triazolo[1,5-a]pyridin-6-yl)benzamide]"
20,≤ 1,"Cc1cc(C(=O)N2CCOCC2)ccc1Nc1nc2ccc(-c3ccc(C(=O)NCc4ccc(F)cc4)cc3)cn2n1 [Example 04.29, N-(4-fluorobenzyl)-4-(2-{[2-methyl-4-(morpholin-4-ylcarbonyl)phenyl]amino}[,2]-triazolo[1,5-a]pyridin-6-yl)benzamide]"
21,≤ 1,"CCOc1cc(C(=O)NC2CCN(C)CC2)ccc1Nc1nc2ccc(-c3ccc(NC(=O)Cc4ccc(F)cc4)cc3)cn2n1 [Example 02.25, 3-ethoxy-4-{[6-(4-{[(4-fluorophenyl)acetyl]amino}phenyl)[,2]-triazolo[1,5-a]pyridin-2-yl]amino}-N-(1-methylpiperidin-4-yl)benzamide]"
22,≤ 1,"O=C(Cc1ccc(F)cc1)Nc1ccc(-c2ccc3nc(Nc4ccc(C(=O)N5CC6(COC6)C5)cc4OCC(F)(F)F)nn3c2)cc1 [Example 02.26, 2-(4-fluorophenyl)-N-[4-(2-{[4-(2-oxa-6-azaspiro[3.3]hept-6-ylcarbonyl)-2-(2,2,2-trifluoroethoxy)phenyl]amino}[,2]triazolo[1,5-a]pyridin-6-yl)phenyl]acetamide]"
23,≤ 1,"COc1cc(N2CCOC2=O)ccc1Nc1nc2ccc(-c3ccc(C(=O)NCc4ccc(F)cc4)cc3)cn2n1 [Example 04.03, N-(4-fluorobenzyl)-4-(2-{[2-methoxy-4-(2-oxo-1,3-oxazolidin-3-yl)phenyl]amino}[,2]-triazolo[1,5-a]pyridin-6-yl)benzamide]"
24,≤ 1,"Cc1cc(N2CCOC2=O)ncc1Nc1nc2ccc(-c3ccc(NC(=O)Cc4ccc(F)cc4)cc3)cn2n1 [Example 02.13, 2-(4-fluorophenyl)-N-[4-(2-{[4-methyl-6-(2-oxo-1,3-oxazolidin-3-yl)pyridin-3-yl]amino}[,2]-triazolo[1,5-a]pyridin-6-yl)phenyl]acetamide]"
25,≤ 1,"CCOc1cc(N2CCOC2=O)ccc1Nc1nc2ccc(-c3ccc(C(=O)NCc4ccc(F)cc4)cc3)cn2n1 [Example 04.04, 4-(2-{[2-ethoxy-4-(2-oxo-1,3-oxazolidin-3-yl)phenyl]amino}[,2]triazolo[1,5-a]pyridin-6-yl)-N-(4-fluorobenzyl)benzamide]"
26,≤ 1,"COc1cc(OC2CCN(C)CC2)ccc1Nc1nc2ccc(-c3ccc(C(=O)NCc4ccc(F)cc4)cc3)cn2n1 [Example 04.26, N-(4-fluorobenzyl)-4-[2-({2-methoxy-4-[(1-methylpiperidin-4-yl)oxy]phenyl}amino)[,2]triazolo[1,5-a]pyridin-6-yl]benzamide]"
